Measured values reported in PMC4657098, “A Review of the Updated Pharmacophore for the Alpha 5 GABA(A) Benzodiazepine Receptor Model” (International Journal of Medicinal Chemistry, 2015).
Where two headings read alike, the source gives them in different places.

Columns and labels:
[1] = test system: Bz BS of GABA(A) receptors; conditions: cited from earlier work
α3β3γ2 GABAA/BzR [2] = molecular target: T1, α3β3γ2 GABAA/BzR (Homo sapiens, UniProt P18507+P34903); assay: Competition binding to HEK cell membranes, α3β3γ2; design: expressed in transfected cells
α6β3γ2 GABAA/BzR [3] = molecular target: T2, α6β3γ2 GABAA/BzR (Homo sapiens, UniProt P18507+Q16445); assay: Competition binding to HEK cell membranes, α6β3γ2; design: expressed in transfected cells; conditions: Ki α6
α1β3γ2 GABAA/BzR [4] = molecular target: T3, α1β3γ2 GABAA/BzR (Homo sapiens, UniProt P14867+P18507); assay: Competition binding to HEK cell membranes, α1β3γ2; design: expressed in transfected cells
α2β3γ2 GABAA/BzR [5] = molecular target: T4, α2β3γ2 GABAA/BzR (Homo sapiens, UniProt P18507+P47869); assay: Competition binding to HEK cell membranes, α2β3γ2; design: expressed in transfected cells
α5β3γ2 GABAA/BzR [6] = molecular target: T5, α5β3γ2 GABAA/BzR (Homo sapiens, UniProt P18507+P31644); assay: Competition binding to HEK cell membranes, α5β3γ2; design: expressed in transfected cells
α3β3γ2 GABAA/BzR [7] = molecular target: T1, α3β3γ2 GABAA/BzR; design: expressed in transfected cells; host or cells: LTK cells (given for XLi-093 only); conditions: cited from earlier work
α5β3γ2 GABAA/BzR [8] = molecular target: T5, α5β3γ2 GABAA/BzR; design: expressed in transfected cells; host or cells: LTK cells (given for XLi-093 only); conditions: cited from earlier work
α1β3γ2 GABAA/BzR [9] = molecular target: T3, α1β3γ2 GABAA/BzR; design: expressed in transfected cells; host or cells: LTK cells (given for XLi-093 only); conditions: cited from earlier work
α4β3γ2 GABAA/BzR [10] = molecular target: T6, α4β3γ2 GABAA/BzR (Homo sapiens, UniProt P18507+P48169); conditions: read-out: Affinity Ki α4; cited from earlier work
T6 construct: expressed in transfected cells; host or cells: LTK cells (given for XLi-093 only)

α2β3γ2 GABAA/BzR [11] = molecular target: T4, α2β3γ2 GABAA/BzR; design: expressed in transfected cells; host or cells: LTK cells (given for XLi-093 only); conditions: cited from earlier work
α6β3γ2 GABAA/BzR [12] = molecular target: T2, α6β3γ2 GABAA/BzR; design: expressed in transfected cells; host or cells: LTK cells (given for XLi-093 only); conditions: cited from earlier work
α4β3γ2 GABAA/BzR [13] = molecular target: T6, α4β3γ2 GABAA/BzR; assay: biochemical; assay type: binding

In the case of Cc1ccc(-c2nc3ccc(C)cn3c2CC(=O)N(C)C)cc1 [zolpidem], the modulation ([1]; Supplement Table 1) is given as “agonist”.
For CCCOc1ccc2[nH]c3cnc(C(=O)OCC)c(COC)c3c2c1 [6-PBC, 6-(propyloxy)-4-(methoxymethyl)-β-carboline-3-carboxylic acid ethyl ester], the Ki (α3β3γ2 GABAA/BzR [2]; Ki α3) is listed as 2.2 nM, the Ki (α6β3γ2 GABAA/BzR [3]) is listed as 1340 nM and the modulation ([1]; Supplement Table 1) is listed as “partial agonist”. It also gave a Ki (α1β3γ2 GABAA/BzR [4]; Ki α1) of 0.49 nM, a Ki (α2β3γ2 GABAA/BzR [5]; Ki α2) of 1.21 nM and a Ki (α5β3γ2 GABAA/BzR [6]; Ki α5) of 2.39 nM.
In the case of O=C(OC(C(F)(F)F)C(F)(F)F)c1cc2c(cn1)[nH]c1ccc(I)cc12 [32(WY-B-08)], the Ki (α3β3γ2 GABAA/BzR [7]; read-out: Affinity Ki α3) is listed as 131 nM, the Ki (α5β3γ2 GABAA/BzR [8]; read-out: Affinity Ki α5) is listed as 681 nM and the Ki (α1β3γ2 GABAA/BzR [9]; read-out: Affinity Ki α1) is listed as 78 nM. The Ki (α4β3γ2 GABAA/BzR [10]) was 3000 nM, the Ki (α2β3γ2 GABAA/BzR [11]; read-out: Affinity Ki α2) was 301 nM and the Ki (α6β3γ2 GABAA/BzR [12]; read-out: Affinity Ki α6) was 3000 nM.
For CCOC(=O)c1cc2c(cn1)[nH]c1ccc(I)cc12 [31(iodo-βCCE)], the Ki (α3β3γ2 GABAA/BzR [7]; read-out: Affinity Ki α3) is listed as 34 nM, the Ki (α5β3γ2 GABAA/BzR [8]; read-out: Affinity Ki α5) is listed as 286 nM and the Ki (α1β3γ2 GABAA/BzR [9]; read-out: Affinity Ki α1) is listed as 4.8 nM. For the same molecule, the Ki (α4β3γ2 GABAA/BzR [10]) was 1000 nM, the Ki (α2β3γ2 GABAA/BzR [11]; read-out: Affinity Ki α2) was 31 nM and the Ki (α6β3γ2 GABAA/BzR [12]; read-out: Affinity Ki α6) was 1000 nM.
In the case of CN1Cc2c(CCl)ncn2-c2ccc(Cl)cc2C1=O [compound 5], the Ki (α3β3γ2 GABAA/BzR [7]; Figure 4, read-out: Ki α3) is listed as over 300 nM, the Ki (α5β3γ2 GABAA/BzR [8]; Figure 4, read-out: Ki α5) is listed as 28.5 nM and the Ki (α1β3γ2 GABAA/BzR [9]; Figure 4, read-out: Ki α1) is listed as over 300 nM. The Ki (α2β3γ2 GABAA/BzR [11]; Figure 4, read-out: Ki α2) was over 300 nM and the Ki (α6β3γ2 GABAA/BzR [12]; Figure 4, read-out: Ki α6) was over 300 nM.
For Cc1nnc2n1-c1ccc(Cl)cc1C(c1ccccc1Cl)=NC2 [triazolam], the modulation ([1]; Supplement Table 1) is listed as “agonist”.
In the case of Ro15-4513 [reference compound], the modulation [1] is listed as “inverse agonist”, the Ki (α2β3γ2 GABAA/BzR [5]; read-out: Ki α2) is listed as 2.6 nM and the Ki (α5β3γ2 GABAA/BzR [6]; read-out: Ki α5) is listed as 0.26 nM.
In the case of Cc1nnc2ccc(-c3cccc(C(F)(F)F)c3)nn12 [CL-218,872], the modulation ([1]; Supplement Table 1) is listed as “partial agonist”.
For CCOCc1ncn2c1CN(C)C(=O)c1cc(Cl)ccc1-2 [compound 6], the Ki (α3β3γ2 GABAA/BzR [7]; Figure 4, read-out: Ki α3) is given as over 300 nM, the Ki (α5β3γ2 GABAA/BzR [8]; Figure 4, read-out: Ki α5) is given as 82.7 nM and the Ki (α1β3γ2 GABAA/BzR [9]; Figure 4, read-out: Ki α1) is given as over 300 nM. The Ki (α2β3γ2 GABAA/BzR [11]; Figure 4, read-out: Ki α2) was over 300 nM and the Ki (α6β3γ2 GABAA/BzR [12]; Figure 4, read-out: Ki α6) was over 300 nM.
With CC(C)(C)OC(=O)c1cc2c(cn1)[nH]c1ccc(F)cc12 [CM-A87] the Ki (α3β3γ2 GABAA/BzR [2]; Ki α3) was 14.7 nM, the Ki (α3β3γ2 GABAA/BzR [2]; read-out: Ki α3) was 14.7 nM and the Ki (α6β3γ2 GABAA/BzR [3]) was 1000 nM. For the same molecule, the Ki (α3β3γ2 GABAA/BzR [7]; read-out: Affinity Ki α3) was 14.7 nM, the Ki (α1β3γ2 GABAA/BzR [4]; Ki α1) was 1.62 nM and the Ki (α1β3γ2 GABAA/BzR [4]; read-out: Ki α1) was 1.62 nM. For the same molecule, the Ki (α2β3γ2 GABAA/BzR [5]; Ki α2) was 4.54 nM, the Ki (α2β3γ2 GABAA/BzR [5]; read-out: Ki α2) was 4.54 nM and the Ki (α5β3γ2 GABAA/BzR [8]; read-out: Affinity Ki α5) was 4.61 nM. The Ki (α1β3γ2 GABAA/BzR [9]; read-out: Affinity Ki α1) was 1.62 nM, the Ki (α4β3γ2 GABAA/BzR [13]) was 1000 nM and the Ki (α2β3γ2 GABAA/BzR [11]; read-out: Affinity Ki α2) was 4.54 nM. The Ki (α5β3γ2 GABAA/BzR [6]; Ki α5) was 4.61 nM and the Ki (α5β3γ2 GABAA/BzR [6]; read-out: Ki α5) was 4.61 nM.
In the case of CCOC(=O)c1ncn2c1CN(C)C(=O)c1cc(F)ccc1-2 [Ro15-1788], the modulation [1] is given as “antagonist”.
In the case of O=C(OCC(F)(F)F)c1cc2c(cn1)[nH]c1ccc(-c3ccco3)cc12 [34(WYB27-1)], the Ki (α3β3γ2 GABAA/BzR [7]; read-out: Affinity Ki α3) is given as 117 nM, the Ki (α5β3γ2 GABAA/BzR [8]; read-out: Affinity Ki α5) is given as 127 nM and the Ki (α1β3γ2 GABAA/BzR [9]; read-out: Affinity Ki α1) is given as 26 nM. For the same molecule, the Ki (α4β3γ2 GABAA/BzR [10]) was 3000 nM, the Ki (α2β3γ2 GABAA/BzR [11]; read-out: Affinity Ki α2) was 143 nM and the Ki (α6β3γ2 GABAA/BzR [12]; read-out: Affinity Ki α6) was 2000 nM.
For CCOC(=O)c1cc2c(cn1)[nH]c1ccccc12 [BCCE, reference compound], the modulation [1] is listed as “inverse agonist” and the Ki (α1β3γ2 GABAA/BzR [4]; read-out: Ki α1) is listed as 1.2 nM.
For Cc1ncc2n1-c1ccc(Cl)cc1C(c1ccccc1F)=NC2 [midazolam], the modulation ([1]; Supplement Table 1) is given as “agonist”.
In the case of C#Cc1ccc2[nH]c3cnc(C(=O)OCC(F)(F)F)cc3c2c1 [WY-B-26-2], the Ki (α3β3γ2 GABAA/BzR [2]; Ki α3) is given as 42.7 nM, the Ki (α6β3γ2 GABAA/BzR [3]) is given as 2000 nM and the Ki (α3β3γ2 GABAA/BzR [7]; read-out: Affinity Ki α3) is given as 42.7 nM. For the same molecule, the Ki (α1β3γ2 GABAA/BzR [4]; Ki α1) was 4.45 nM, the Ki (α2β3γ2 GABAA/BzR [5]; Ki α2) was 44.6 nM and the Ki (α5β3γ2 GABAA/BzR [8]; read-out: Affinity Ki α5) was 124 nM. For the same molecule, the Ki (α1β3γ2 GABAA/BzR [9]; read-out: Affinity Ki α1) was 4.5 nM, the Ki (α4β3γ2 GABAA/BzR [13]) was 2000 nM and the Ki (α2β3γ2 GABAA/BzR [11]; read-out: Affinity Ki α2) was 44.6 nM. For the same molecule, the Ki (α5β3γ2 GABAA/BzR [6]; Ki α5) was 124 nM.
For CN1C(=O)CN=C(c2ccccc2)c2cc(Cl)ccc21 [diazepam], the modulation [1] is given as “agonist”.
